Assay results taken from patent US11414387B2, “Oxoacridinyl acetic acid derivatives and methods of use” (Stingthera, Inc., priority 2017, dated 2022).

What follows are compounds tested against hSTING-R232 (Homo sapiens (Human), UniProt Q86WV6, H232R) (assay: STING differential scanning fluorimetry (DSF) assay, WT human STING). Conditions: WT (R232) human STING aa140-379, net shift in melting temperature.
Chain of hSTING-R232 (Q86WV6 140-379 H232R): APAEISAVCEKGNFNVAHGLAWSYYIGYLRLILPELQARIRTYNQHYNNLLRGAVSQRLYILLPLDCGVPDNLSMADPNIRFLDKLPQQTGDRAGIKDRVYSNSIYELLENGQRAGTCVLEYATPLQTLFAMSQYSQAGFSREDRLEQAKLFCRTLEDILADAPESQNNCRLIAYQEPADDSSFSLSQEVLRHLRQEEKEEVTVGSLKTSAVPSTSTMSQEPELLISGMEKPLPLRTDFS

Row | WT_DSF_hSWAT Tm Shift (° C.) | SMILES
1 | D (“D” > 7° C.) | O=C(O)Cn1c2cc(NC3CCC3)ccc2c(=O)c2ccc(Cl)c(Br)c21 [Compound 175]
2 | A (“A” < 0° C.) | COc1ccc2c(c1C)c(=O)c1ccc(Cl)c(Cl)c1n2CC(=O)O [Compound 133]
3 | A (“A” < 0° C.) | Cc1ccc2c(=O)c3ccc(Cl)cc3n([C@@H](C)C(=O)O)c2c1 [Compound 180]
4 | A (“A” < 0° C.) | Cc1cccc2c(=O)c3cccc(C)c3n(CC(=O)O)c12 [Compound 132]
5 | C (“C” = 2-7° C,) | O=C(O)Cn1c2cc(-c3ccc(F)cc3)ccc2c(=O)c2ccc(Cl)c(Cl)c21 [Compound 153]
6 | A (“A” < 0° C.) | O=C(O)Cn1c2cc(-c3cccc(Cl)n3)ccc2c(=O)c2ccc(Cl)c(Cl)c21 [Compound 162]
7 | B (“B” = 0-2° C.) | O=C(O)Cn1c2ccccc2c(=O)c2ccc(F)c(Br)c21 [Compound 173]
8 | B (“B” = 0-2° C.) | O=C(O)Cn1c2cc(C(F)(F)F)ccc2c(=O)c2ccc(Cl)c(Cl)c21 [Compound 165]
9 | A (“A” < 0° C.) | COc1cccc2c(=O)c3ccccc3n(CC(=O)O)c12 [Compound 131]
10 | C (“C” = 2-7° C,) | CC1(C)CCCC(Nc2ccc3c(=O)c4ccc(Cl)c(Cl)c4n(CC(=O)O)c3c2)C1 (centres unmarked) [Compound 139]
11 | C (“C” = 2-7° C,) | O=C(O)Cn1c2cc(N3CCc4ccccc43)ccc2c(=O)c2ccc(Cl)c(Cl)c21 [Compound 144]
12 | C (“C” = 2-7° C,) | CC(C)(C)CNc1ccc2c(=O)c3ccc(Cl)c(Br)c3n(CC(=O)O)c2c1 [Compound 148]
13 | C (“C” = 2-7° C,) | O=C(O)Cn1c2cc(-c3ccncc3)ccc2c(=O)c2ccc(Cl)c(Cl)c21 [Compound 189]
14 | B (“B” = 0-2° C.) | CC(C)c1ccc(-c2ccc3c(c2)c(=O)c2ccc(Cl)c(Br)c2n3CC(=O)O)cc1 [Compound 109]
15 | A (“A” < 0° C.) | Cc1ccc2c(=O)c3ccc(Cl)cc3n(C(C)C(=O)O)c2c1 (centres unmarked) [Compound 171]
16 | C (“C” = 2-7° C,) | CC1(C)CCC=C(c2ccc3c(=O)c4ccc(Cl)c(Cl)c4n(CC(=O)O)c3c2)C1 [Compound 157]

What follows are compounds tested against STING protein (Homo sapiens (Human), UniProt Q86WV6, H232R) (assay: Cell based reporter assay of IRF activation (IRF-luciferase), THP1-dual-KI R232). Conditions: read-out: THP1-dual-KI R232_IRF(Luciferase)_Activity Maximum measured (%).
Chain of STING protein (Q86WV6 whole entry H232R): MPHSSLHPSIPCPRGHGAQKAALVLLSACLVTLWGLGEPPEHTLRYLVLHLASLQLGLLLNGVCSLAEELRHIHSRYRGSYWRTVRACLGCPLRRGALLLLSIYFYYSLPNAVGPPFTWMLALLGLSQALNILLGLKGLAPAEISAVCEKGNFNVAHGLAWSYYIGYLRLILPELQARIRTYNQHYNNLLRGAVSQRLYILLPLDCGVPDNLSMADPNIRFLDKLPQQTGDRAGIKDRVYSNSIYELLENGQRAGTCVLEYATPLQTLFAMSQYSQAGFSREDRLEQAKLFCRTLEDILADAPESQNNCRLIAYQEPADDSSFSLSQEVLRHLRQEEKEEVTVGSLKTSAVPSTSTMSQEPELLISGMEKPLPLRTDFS

Row | Emax [%] | SMILES
17 | > 50 | O=C(O)Cn1c2cc(NC3CCC3)ccc2c(=O)c2ccc(Cl)c(Br)c21 [Compound 175]
18 | < 5 | Cc1cccc2c(=O)c3cccc(C)c3n(CC(=O)O)c12 [Compound 132]
19 | 5 to 25 | O=C(O)Cn1c2cc(-c3ccc(F)cc3)ccc2c(=O)c2ccc(Cl)c(Cl)c21 [Compound 153]
20 | < 5 | O=C(O)Cn1c2cc(-c3cccc(Cl)n3)ccc2c(=O)c2ccc(Cl)c(Cl)c21 [Compound 162]
21 | < 5 | CC1(C)CCCC(Nc2ccc3c(=O)c4ccc(Cl)c(Cl)c4n(CC(=O)O)c3c2)C1 (centres unmarked) [Compound 139]
22 | < 5 | O=C(O)Cn1c2cc(N3CCc4ccccc43)ccc2c(=O)c2ccc(Cl)c(Cl)c21 [Compound 144]
23 | 25 to 50 | CC(C)(C)CNc1ccc2c(=O)c3ccc(Cl)c(Br)c3n(CC(=O)O)c2c1 [Compound 148]
24 | 5 to 25 | O=C(O)Cn1c2cc(-c3ccncc3)ccc2c(=O)c2ccc(Cl)c(Cl)c21 [Compound 189]
25 | < 5 | CC(C)c1ccc(-c2ccc3c(c2)c(=O)c2ccc(Cl)c(Br)c2n3CC(=O)O)cc1 [Compound 109]
26 | < 5 | Cc1ccc2c(=O)c3ccc(Cl)cc3n(C(C)C(=O)O)c2c1 (centres unmarked) [Compound 171]
27 | < 5 | CC1(C)CCC=C(c2ccc3c(=O)c4ccc(Cl)c(Cl)c4n(CC(=O)O)c3c2)C1 [Compound 157]

These compounds were tested against hSTING-WT (Homo sapiens (Human), UniProt Q86WV6, H232R) (assay: Radiometric filtration binding competition assay, hSTING-WT). Conditions: not given.
Chain of hSTING-WT (Q86WV6 140-379 H232R): as the sequence (Q86WV6 140-379 H232R) above

Row | IC50 [µM] | SMILES
28 | 20 to 100 | O=C(O)Cn1c2cc(NC3CCC3)ccc2c(=O)c2ccc(Cl)c(Br)c21 [Compound 175]
29 | 100 to 300 | COc1ccc2c(c1C)c(=O)c1ccc(Cl)c(Cl)c1n2CC(=O)O [Compound 133]
30 | 20 to 100 | Cc1ccc2c(=O)c3ccc(Cl)cc3n([C@@H](C)C(=O)O)c2c1 [Compound 180]
31 | 100 to 300 | Cc1cccc2c(=O)c3cccc(C)c3n(CC(=O)O)c12 [Compound 132]
32 | 20 to 100 | O=C(O)Cn1c2cc(-c3ccc(F)cc3)ccc2c(=O)c2ccc(Cl)c(Cl)c21 [Compound 153]
33 | 100 to 300 | O=C(O)Cn1c2cc(-c3cccc(Cl)n3)ccc2c(=O)c2ccc(Cl)c(Cl)c21 [Compound 162]
34 | > 300 | O=C(O)Cn1c2ccccc2c(=O)c2ccc(F)c(Br)c21 [Compound 173]
35 | > 300 | O=C(O)Cn1c2cc(C(F)(F)F)ccc2c(=O)c2ccc(Cl)c(Cl)c21 [Compound 165]
36 | > 300 | COc1cccc2c(=O)c3ccccc3n(CC(=O)O)c12 [Compound 131]
37 | 20 to 100 | CC1(C)CCCC(Nc2ccc3c(=O)c4ccc(Cl)c(Cl)c4n(CC(=O)O)c3c2)C1 (centres unmarked) [Compound 139]
38 | 100 to 300 | O=C(O)Cn1c2cc(N3CCc4ccccc43)ccc2c(=O)c2ccc(Cl)c(Cl)c21 [Compound 144]
39 | 20 to 100 | CC(C)(C)CNc1ccc2c(=O)c3ccc(Cl)c(Br)c3n(CC(=O)O)c2c1 [Compound 148]
40 | 100 to 300 | O=C(O)Cn1c2cc(-c3ccncc3)ccc2c(=O)c2ccc(Cl)c(Cl)c21 [Compound 189]
41 | 20 to 100 | CC(C)c1ccc(-c2ccc3c(c2)c(=O)c2ccc(Cl)c(Br)c2n3CC(=O)O)cc1 [Compound 109]
42 | > 300 | Cc1ccc2c(=O)c3ccc(Cl)cc3n(C(C)C(=O)O)c2c1 (centres unmarked) [Compound 171]
43 | 20 to 100 | CC1(C)CCC=C(c2ccc3c(=O)c4ccc(Cl)c(Cl)c4n(CC(=O)O)c3c2)C1 [Compound 157]

These compounds were tested against mSTING-R232 (Mus musculus, UniProt Q3TBT3) (assay: STING differential scanning fluorimetry (DSF) assay, mouse STING). Conditions: net shift in melting temperature.

Row | MOUSE DSF_6xHIS-SUMO Tm Shift (° C.) | SMILES
44 | D (“D” > 15° C.) | O=C(O)Cn1c2cc(NC3CCC3)ccc2c(=O)c2ccc(Cl)c(Br)c21 [Compound 175]
45 | B (“B” = 0-5° C.) | COc1ccc2c(c1C)c(=O)c1ccc(Cl)c(Cl)c1n2CC(=O)O [Compound 133]
46 | B (“B” = 0-5° C.) | Cc1ccc2c(=O)c3ccc(Cl)cc3n([C@@H](C)C(=O)O)c2c1 [Compound 180]
47 | A (“A” < 0° C.) | Cc1cccc2c(=O)c3cccc(C)c3n(CC(=O)O)c12 [Compound 132]
48 | D (“D” > 15° C.) | O=C(O)Cn1c2cc(-c3ccc(F)cc3)ccc2c(=O)c2ccc(Cl)c(Cl)c21 [Compound 153]
49 | C (“C” = 5-15° C.) | O=C(O)Cn1c2cc(-c3cccc(Cl)n3)ccc2c(=O)c2ccc(Cl)c(Cl)c21 [Compound 162]
50 | C (“C” = 5-15° C.) | O=C(O)Cn1c2ccccc2c(=O)c2ccc(F)c(Br)c21 [Compound 173]
51 | C (“C” = 5-15° C.) | O=C(O)Cn1c2cc(C(F)(F)F)ccc2c(=O)c2ccc(Cl)c(Cl)c21 [Compound 165]
52 | A (“A” < 0° C.) | COc1cccc2c(=O)c3ccccc3n(CC(=O)O)c12 [Compound 131]
53 | D (“D” > 15° C.) | CC1(C)CCCC(Nc2ccc3c(=O)c4ccc(Cl)c(Cl)c4n(CC(=O)O)c3c2)C1 (centres unmarked) [Compound 139]
54 | C (“C” = 5-15° C.) | O=C(O)Cn1c2cc(N3CCc4ccccc43)ccc2c(=O)c2ccc(Cl)c(Cl)c21 [Compound 144]
55 | C (“C” = 5-15° C.) | CC(C)(C)CNc1ccc2c(=O)c3ccc(Cl)c(Br)c3n(CC(=O)O)c2c1 [Compound 148]
56 | C (“C” = 5-15° C.) | O=C(O)Cn1c2cc(-c3ccncc3)ccc2c(=O)c2ccc(Cl)c(Cl)c21 [Compound 189]
57 | B (“B” = 0-5° C.) | CC(C)c1ccc(-c2ccc3c(c2)c(=O)c2ccc(Cl)c(Br)c2n3CC(=O)O)cc1 [Compound 109]
58 | B (“B” = 0-5° C.) | Cc1ccc2c(=O)c3ccc(Cl)cc3n(C(C)C(=O)O)c2c1 (centres unmarked) [Compound 171]
59 | D (“D” > 15° C.) | CC1(C)CCC=C(c2ccc3c(=O)c4ccc(Cl)c(Cl)c4n(CC(=O)O)c3c2)C1 [Compound 157]
